# Test results as given in a melting point compilation (Tetko et al.; mined from patent text by program, amines drawn as free bases though some values may be those of a salt).
row,melting point,Structure (SMILES)
1,175 °C,COc1ccc(NC(N)=S)c(N2CCOCC2)c1
2,141 to 143 °C,CC1(C)OC[C@H]([C@@H](CS(=O)(=O)c2ccc(Oc3ccc(C(F)(F)F)cc3)cc2)N(O)C=O)O1
3,84 to 86 °C,CN(C)Cc1ccc(C2(O)CCC3(CC2)OCCO3)cc1
4,48 to 52 °C,CC(C)CN1C(=O)CC(C)(C)CC1=O
5,247 to 249 °C,CC1CCc2ccc(N)c3c(=O)c(C(=O)O)cn1c23 (stereo not given)
6,212 to 215 °C,CC(C)c1cccc(C(C)C)c1NC(=O)C(Cc1ccccc1)NC(=O)CCCCl (stereo not given)
7,72.3 to 75.1 °C,O=C(N[C@H](CCCO)c1nc(-c2ccccc2)c(-c2ccccc2)o1)OCc1ccccc1
8,166 to 167 °C,O=c1ccn(-c2cccc(C(F)(F)F)c2)nc1-c1ccnn1-c1ccc(Cl)cc1
9,152 to 153 °C,O=C(O)CCCc1ccc(C(Cc2ccccc2)NS(=O)(=O)c2ccc(Cl)cc2)cc1 (stereo not given)
10,208 to 210 °C,Clc1nnccc1-c1c(-c2ccccc2)nn2ccccc12
11,63 to 64 °C,CCOC(=O)c1cc2c(F)ccc(Cl)c2s1
12,79 to 81 °C,CCOC(=O)CN1C(=O)COc2cc(F)c([N+](=O)[O-])cc21
13,186 to 187 °C,O=C1COc2ccc(CO)cc2N1
14,129 to 131 °C,CN(C)C(=O)c1ccc(CCC(=O)c2cccc(OCc3ccc4ccc(Cl)cc4n3)c2)o1
15,122 to 123 °C,Cc1cc(Cc2nnc(Nc3cc(Br)cc(C(F)(F)F)c3)c3ccccc23)ccn1
16,142 to 143 °C,O=C1OCCC1Nc1ccc(Nc2ccccc2)cc1 (stereo not given)
17,129 to 132 °C,CC1=C(C(=O)Nc2ccccn2)C(c2ccccc2Cl)C(C(=O)OCCCCn2c(C)nc3cnccc32)=C(c2ccc(F)cc2)N1 (stereo not given)
18,209 to 210 °C,Cc1ccccc1C(=O)Nc1ccc2oc3c(c2c1)CCCC3
19,227 to 231 °C,N#CNC1=NC(c2ccc(OC(F)(F)F)cc2)(c2cccc(-c3cncnc3)c2)C2=NCCCN12 (stereo not given)
20,176 to 180 °C,Brc1ccc(N2CCN(c3ccncc3)CC2)nc1

row,melting point,Structure (SMILES)
1,119 to 121 °C,COC(=O)/C(=C/c1ccc(OC)c(OC2CCCC2)c1)CC(=O)O
2,80.5 to 81.5 °C,Clc1ccc(C2=NOCCS2)cc1
3,110 to 112 °C,Nc1ncc(C(F)(F)F)cc1[N+](=O)[O-]
4,139 °C,CC1=C(C(=O)N(C)Cc2ccc(Cl)cc2)SC2=NC(C)(C)CN21
5,129 to 131 °C,O=C(Nc1nc(OCc2ccc(F)cc2)ncc1F)Oc1ccccc1
6,168 °C,O=C(O)CCCc1cc2nc(C(F)(F)F)ccc2n1S(=O)(=O)c1ccccc1
7,129 to 131 °C,Nc1ccc2c(n1)CCO2
8,243 to 244 °C,O=C(C1CCC(Nc2nccc(-n3nnc4c(-c5ccoc5)cccc43)n2)CC1)N1CCC(O)CC1 (stereo not given)
9,92.7 to 95.4 °C,CC(=O)NC[C@H]1CN(c2ccc(-n3nccc3-c3ccc(Br)cn3)c(F)c2)C(=O)O1
10,242 to 245 °C,O=C(O)COc1cc2c(=O)c3c(F)cccc3oc2cc1Cl
11,113 to 115 °C,CC(C)(C)C1CCC2(CC1)CC(O)(CNC1CCCCC1)CO2 (stereo not given)
12,118 to 119 °C,CCOC(=O)c1cccc2nc(CC)n(Cc3ccc(-c4ccccc4C(=O)C(=O)OC)cc3)c12
13,205 °C,O=C1COC(c2cccc(Cl)c2)c2cc(C3(c4ccc(Cl)cc4)OCCO3)ccc2N1 (stereo not given)
14,183 to 186 °C,CC(C)(C)c1cc(-c2nn(CCC(=O)O)c3ncccc23)cc(C(C)(C)C)c1O
15,77 to 79 °C,O=[N+]([O-])c1cc(I)cnc1Cl
16,130 to 132 °C,COc1ccc(N2C(=O)C(OC(C)=O)C2c2ccccc2Cl)cc1 (stereo not given)
17,82 °C,CNc1c([N+](=O)[O-])ccc(Cl)c1Cl
18,291 to 294 °C,O=C(O)c1cn(C2CC2)c2cc(N3CCC3)c(F)cc2c1=O
19,63 to 64 °C,O=[N+]([O-])c1c(Cl)nc2c(c1Cl)CCCC2
20,88 to 90 °C,CSc1nccc(C)c1NC(=O)CCCCCCCCSc1nc2ccccc2s1
